Results published in US10662229B2, “Spider venom peptides and methods of use for modulating sodium channels” (priority 2016, dated 2020).
Where a SMILES comes first, the peptide text is derived from it. Bridges are numbered along the chain shown (N, C = ends).

Tests used:
hNav1.2 = biological target: T1, hNav1.2 (Homo sapiens, UniProt Q99250); assay: FLIPR membrane potential assay, hNav1.2; assay type: cell-based
T1 construct: host or cells: HEK293
Outline: (§1)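 Stable HEK293 lines, one per hNav isoform; red membrane potential dye, 30 min, 37° C; FLIPR^TETRA read at 1 s intervals over 300 s post-agonist.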

hNav1.6 = biological target: T2, hNav1.6 (Homo sapiens, UniProt Q9UQD0); assay: FLIPR membrane potential assay, hNav1.6; assay type: cell-based
T2 construct: host or cells: HEK293
Outline: as §1

hNav1.7 [1] = biological target: T3, hNav1.7 (Homo sapiens, UniProt Q15858); assay: Automated patch clamping (QPatch-16), hNav1.7; assay type: cell-based; details: 100 nM
T3 construct: host or cells: HEK293
T3 sequence (Q15858 whole entry): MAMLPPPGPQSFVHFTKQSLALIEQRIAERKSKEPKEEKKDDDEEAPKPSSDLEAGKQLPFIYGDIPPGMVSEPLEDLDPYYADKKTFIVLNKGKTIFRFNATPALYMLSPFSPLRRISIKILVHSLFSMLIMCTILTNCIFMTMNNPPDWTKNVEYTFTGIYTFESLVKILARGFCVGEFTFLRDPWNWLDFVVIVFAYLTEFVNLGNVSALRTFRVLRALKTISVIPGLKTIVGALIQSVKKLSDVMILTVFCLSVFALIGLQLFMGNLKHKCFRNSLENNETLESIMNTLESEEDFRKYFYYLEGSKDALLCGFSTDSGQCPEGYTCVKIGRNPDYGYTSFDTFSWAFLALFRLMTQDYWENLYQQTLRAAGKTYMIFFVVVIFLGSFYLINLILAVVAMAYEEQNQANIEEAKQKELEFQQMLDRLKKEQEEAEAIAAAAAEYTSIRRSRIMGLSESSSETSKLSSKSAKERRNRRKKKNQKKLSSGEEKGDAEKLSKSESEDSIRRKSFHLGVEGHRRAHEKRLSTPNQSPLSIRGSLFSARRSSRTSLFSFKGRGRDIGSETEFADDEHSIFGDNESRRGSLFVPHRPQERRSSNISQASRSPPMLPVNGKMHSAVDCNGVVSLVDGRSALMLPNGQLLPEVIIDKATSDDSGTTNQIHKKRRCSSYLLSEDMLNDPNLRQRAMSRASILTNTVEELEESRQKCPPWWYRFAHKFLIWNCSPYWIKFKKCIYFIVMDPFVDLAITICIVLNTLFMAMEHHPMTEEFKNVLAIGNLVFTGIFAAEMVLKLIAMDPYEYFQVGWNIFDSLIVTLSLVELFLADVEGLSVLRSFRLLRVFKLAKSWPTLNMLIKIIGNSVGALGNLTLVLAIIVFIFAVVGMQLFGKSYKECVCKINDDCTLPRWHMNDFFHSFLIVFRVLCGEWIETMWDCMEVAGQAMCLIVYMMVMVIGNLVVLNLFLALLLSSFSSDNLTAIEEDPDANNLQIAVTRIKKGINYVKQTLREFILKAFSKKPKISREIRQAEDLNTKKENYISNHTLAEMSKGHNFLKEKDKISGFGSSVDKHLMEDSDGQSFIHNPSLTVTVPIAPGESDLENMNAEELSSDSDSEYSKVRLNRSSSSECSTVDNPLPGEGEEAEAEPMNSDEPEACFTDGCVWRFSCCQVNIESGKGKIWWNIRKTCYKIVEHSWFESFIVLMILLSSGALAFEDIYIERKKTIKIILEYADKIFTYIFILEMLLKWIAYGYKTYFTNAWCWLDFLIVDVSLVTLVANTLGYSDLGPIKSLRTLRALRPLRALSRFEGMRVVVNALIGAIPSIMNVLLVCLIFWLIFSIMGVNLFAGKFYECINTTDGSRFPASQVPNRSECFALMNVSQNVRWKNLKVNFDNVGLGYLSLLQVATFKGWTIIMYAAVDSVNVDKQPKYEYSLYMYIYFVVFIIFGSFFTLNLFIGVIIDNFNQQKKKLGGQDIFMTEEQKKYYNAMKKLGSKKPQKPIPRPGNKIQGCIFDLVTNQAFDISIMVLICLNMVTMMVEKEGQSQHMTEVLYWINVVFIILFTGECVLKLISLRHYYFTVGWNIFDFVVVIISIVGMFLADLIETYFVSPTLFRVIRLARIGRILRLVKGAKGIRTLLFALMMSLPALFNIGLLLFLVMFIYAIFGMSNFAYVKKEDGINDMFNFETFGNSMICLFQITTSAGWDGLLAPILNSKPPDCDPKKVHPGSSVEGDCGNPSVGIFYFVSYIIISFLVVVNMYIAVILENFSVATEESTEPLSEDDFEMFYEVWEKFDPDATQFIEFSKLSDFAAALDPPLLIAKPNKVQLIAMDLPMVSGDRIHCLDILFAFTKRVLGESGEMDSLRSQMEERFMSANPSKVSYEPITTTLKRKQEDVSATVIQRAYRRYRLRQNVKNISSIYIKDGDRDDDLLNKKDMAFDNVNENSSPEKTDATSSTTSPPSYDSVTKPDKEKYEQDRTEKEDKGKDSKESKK
Experimental: HEK293 cells stably expressing hNav1.1-1.7 or CHO cells stably expressing hNav1.8 (as described in Example 3 above) were cultured in a T-175 flask in selection antibiotic-free media at 37° C. Cells were grown to 70-80% confluence and harvested using Detachin (Bio-Scientific, NSW, Australia) at 37° C. for 2 min. Dissociated cells were then resuspended in Ex-Cell ACF CHO Medium with HEPES (25 mM; Sigma-Aldrich Co.) and allowed to recover on the QStirrer for 30 min.
The extracellular solution contained in mM: NaCl 145, KCl 4, CaCl2 2, MgCl2 1, HEPES 10 and glucose 10. The pH was adjusted to 7.4 with NaOH and osmolarity was adjusted with sucrose to 305 mOsm. The intracellular solution contained in mM: CsF 140, ethylene glycol tetraacetic acid (EGTA)/CsOH 1/5, HEPES 10 and NaCl 10. The pH was adjusted to 7.3 with CsOH and osmolarity adjusted with sucrose to 320 mOsm.
Whole-cell patch-clamp experiments were performed on a QPatch-16 automated electrophysiology platform (Sophion Bioscience, Ballerup, Denmark) using 16-channel planar patch chip plates (QPlates; Sophion Bioscience) with a patch hole diameter of 1 μm and resistance of 2±0.02 MΩ with the following parameters: positioning pressure −60 mbar, minimum seal resistance 0.1 GΩ, holding potential −100 mV, holding pressure −20 mbar.
Whole-cell currents were filtered at 5 kHz and acquired at 25 kHz.
The current-voltage (IV) curve was constructed with a holding potential of −80 mV followed by a pre-pulse of −100 mV for 50 ms and a series of 50 ms step pulses that ranged from −80 to 50 mV in 5 mV increments before returning to a holding potential of −80 mV. Voltage-dependence of activation was determined as normalized Nav conductance (GNa) using: GNa=INa/(Vmemb−Vrev), where Vmemb is the membrane potential and Vrev is the reversal potential for each cell. The voltage of activation data was fitted to a Boltzmann sigmoidal curve using GraphPad Prism, version 6.0.

hNav1.1 = biological target: T4, hNav1.1 (Homo sapiens, UniProt P35498); assay: FLIPR membrane potential assay, hNav1.1; assay type: cell-based
T4 construct: host or cells: HEK293
Outline: as §1

hNav1.5 = biological target: T5, hNav1.5 (Homo sapiens, UniProt Q14524); assay: FLIPR membrane potential assay, hNav1.5; assay type: cell-based
T5 construct: host or cells: HEK293
Outline: as §1

hNav1.4 = biological target: T6, hNav1.4 (Homo sapiens, UniProt P35499); assay: FLIPR membrane potential assay, hNav1.4; assay type: cell-based
T6 construct: host or cells: HEK293
T6 sequence (P35499 whole entry): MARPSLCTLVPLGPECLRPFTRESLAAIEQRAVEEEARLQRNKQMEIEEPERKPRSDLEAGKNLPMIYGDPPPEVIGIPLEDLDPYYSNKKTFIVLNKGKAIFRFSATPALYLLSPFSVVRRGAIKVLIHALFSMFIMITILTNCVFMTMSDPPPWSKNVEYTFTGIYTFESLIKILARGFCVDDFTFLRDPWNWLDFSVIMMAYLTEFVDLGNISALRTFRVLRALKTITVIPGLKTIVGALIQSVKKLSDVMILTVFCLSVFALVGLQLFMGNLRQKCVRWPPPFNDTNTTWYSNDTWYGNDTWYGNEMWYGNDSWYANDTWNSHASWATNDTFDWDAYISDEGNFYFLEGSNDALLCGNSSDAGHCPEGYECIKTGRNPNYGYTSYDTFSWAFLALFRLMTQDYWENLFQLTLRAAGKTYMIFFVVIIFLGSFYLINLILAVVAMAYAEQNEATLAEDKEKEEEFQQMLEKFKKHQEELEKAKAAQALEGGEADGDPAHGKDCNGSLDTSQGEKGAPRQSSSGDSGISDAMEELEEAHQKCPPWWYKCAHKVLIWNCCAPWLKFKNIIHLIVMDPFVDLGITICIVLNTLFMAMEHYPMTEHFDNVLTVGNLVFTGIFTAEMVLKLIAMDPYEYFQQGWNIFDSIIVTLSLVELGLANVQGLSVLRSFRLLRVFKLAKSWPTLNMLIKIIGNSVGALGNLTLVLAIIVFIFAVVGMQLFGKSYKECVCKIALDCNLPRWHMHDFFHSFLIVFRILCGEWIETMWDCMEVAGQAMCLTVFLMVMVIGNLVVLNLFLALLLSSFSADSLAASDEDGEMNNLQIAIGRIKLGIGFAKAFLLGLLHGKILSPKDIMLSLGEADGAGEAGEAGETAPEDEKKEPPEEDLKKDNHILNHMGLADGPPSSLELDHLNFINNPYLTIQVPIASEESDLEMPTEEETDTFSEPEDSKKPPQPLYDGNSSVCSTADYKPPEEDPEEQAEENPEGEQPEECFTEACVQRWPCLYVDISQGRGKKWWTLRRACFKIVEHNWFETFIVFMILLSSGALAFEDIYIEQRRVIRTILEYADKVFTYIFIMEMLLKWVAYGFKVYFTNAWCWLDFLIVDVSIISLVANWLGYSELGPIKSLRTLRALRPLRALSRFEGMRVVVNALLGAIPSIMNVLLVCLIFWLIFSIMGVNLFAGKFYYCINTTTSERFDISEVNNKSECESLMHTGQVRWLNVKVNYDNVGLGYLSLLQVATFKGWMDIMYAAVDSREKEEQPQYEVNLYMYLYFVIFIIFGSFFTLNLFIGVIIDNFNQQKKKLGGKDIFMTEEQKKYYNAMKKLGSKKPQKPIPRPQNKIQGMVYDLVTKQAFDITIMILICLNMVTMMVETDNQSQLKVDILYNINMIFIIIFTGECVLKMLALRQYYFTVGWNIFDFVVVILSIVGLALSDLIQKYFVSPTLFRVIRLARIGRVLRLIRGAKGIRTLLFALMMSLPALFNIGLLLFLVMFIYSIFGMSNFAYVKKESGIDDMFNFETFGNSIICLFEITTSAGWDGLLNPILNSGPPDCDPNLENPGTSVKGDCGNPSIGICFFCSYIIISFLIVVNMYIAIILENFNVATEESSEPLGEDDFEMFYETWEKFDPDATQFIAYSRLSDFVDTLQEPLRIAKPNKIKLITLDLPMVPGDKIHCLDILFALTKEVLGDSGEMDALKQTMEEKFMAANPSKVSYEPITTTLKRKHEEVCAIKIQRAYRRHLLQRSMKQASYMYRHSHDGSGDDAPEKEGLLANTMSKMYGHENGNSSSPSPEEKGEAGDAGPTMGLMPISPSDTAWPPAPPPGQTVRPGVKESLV
Outline: as §1

hNav1.8 = biological target: T7, hNav1.8 (Homo sapiens, UniProt Q9Y5Y9); assay: FLIPR membrane potential assay, hNav1.8; assay type: cell-based
T7 construct: host or cells: HEK293
Outline: as §1

hNav1.3 = biological target: T8, hNav1.3 (Homo sapiens, UniProt Q9NY46); assay: FLIPR membrane potential assay, hNav1.3; assay type: cell-based
T8 construct: host or cells: HEK293
Outline: as §1

hNav1.7 [2] = biological target: T3, hNav1.7; assay: FLIPR membrane potential assay, hNav1.7; assay type: cell-based
Outline: as §1

[3] = test system: OD1-induced spontaneous pain behaviours in mice; assay: OD1 model of spontaneous pain behaviours; assay type: in vivo; details: intraplantar 1 μM, co-injected with OD1
Experimental: (§2) For behavioural assessment adult male C57BL/6J mice aged 6-8 weeks were used. Animals were housed in groups of 3 or 4 per cage, under 12 h light-dark cycles and had standard rodent chow and water ad libitum.
OD1 was diluted in phosphate-buffered saline/0.1% BSA (300 nM) and administered by shallow subcutaneous (intraplantar) injection to the left hind paw of mice in a volume of 40 μL under light isoflurane (3%) anesthesia. Mice were then placed individually into polyvinyl boxes (10×10×10 cm), and spontaneous pain behavior (licks and flinches) was counted by an investigator unaware of the treatments received from video recordings for 10 min post-injection.

[4] = test system: carrageenan-induced mechanical and thermal allodynia in mice; assay: Carrageenan model; assay type: in vivo; details: naloxone methiodide 100 mg/kg i.p.
Experimental: as §2
λ-Carrageenan (Sigma-Aldrich Co.) was dissolved in phosphate buffered saline to a 1% w/v solution (prepared 24 h prior) and administered by intraplantar injection to the left hind paw of mice in a volume of 40 μL under light isoflurane (3%) anaesthesia. Behavioural assessment (mechanical and thermal thresholds) was performed 3 hours after injection of carrageenan.
Mechanical allodynia was assessed using an electronic von Frey apparatus (MouseMet Electronic von Frey, TopCat Metrology Ltd, United Kingdom). […] The force that elicited paw withdrawal was calculated using the MouseMet Software. The paw withdrawal force (PWF) was determined from the average of three tests, separated by at least 2 min.
Mice were habituated in individual mouse runs for at least 5 min prior to testing. […] Removal of the paw and/or the probe by the investigator terminates heating, and triggers display of the withdrawal temperature on the readout, without the need for the investigator to manually stop the heating or record the temperature, until the reset button is pressed. The temperature that elicited a paw withdrawal, known as the paw withdrawal temperature (PWT), was determined by a single test.

[5] = test system: motor performance of mice; assay: Motor assessment, Parallel Rod Floor Test; assay type: in vivo; details: i.p.; Pnc1a 3 mg/kg, PF-04856254 30 mg/kg, CNV1014802 30 mg/kg, GpTx-1 0.1 mg/kg, gabapentin 100 mg/kg
Experimental: as §2
Motor performance was assessed using the Parallel Rod Floor Test and analyzed using ANY-Maze software (Stoelting Co., version 4.70, Wood Dale, Ill., USA). […] Mice were then placed in the Parallel Rod Floor Test apparatus, and the distance travelled (m) and number of foot slips were recorded over 1 min using the ANY-Maze software. The ataxia index was calculated by dividing the number of foot slips by the distance travelled (m).

CSCC[C@@H]1NC(=O)[C@H](Cc2ccc(O)cc2)NC(=O)[C@H](CCCNC(=N)N)NC(=O)[C@@H](NC(=O)[C@@H](N)CC(=O)O)CSSC[C@@H]2NC(=O)[C@@H]3CSSC[C@@H](C(=O)N[C@@H](C)C(=O)N[C@@H](Cc4c[nH]c5ccccc45)C(=O)N[C@@H](CC(=O)O)C(=O)N[C@@H](Cc4ccccc4)C(=O)N[C@H](C(=O)N[C@@H](Cc4ccccc4)C(=O)N[C@H](C(=O)O)[C@@H](C)O)[C@@H](C)O)NC(=O)[C@H](Cc4ccc(O)cc4)NC(=O)[C@H](CCCCN)NC(=O)[C@H](CCSC)NC(=O)[C@H](CC(=O)O)NC(=O)[C@H](CCCNC(=N)N)NC(=O)[C@H](CCCCN)NC(=O)[C@H](CSSC[C@H](NC(=O)[C@H](CC(=O)O)NC(=O)CNC(=O)[C@H](Cc4ccccc4)NC1=O)C(=O)N[C@@H](CCC(=O)O)C(=O)N[C@@H](CCCCN)C(=O)N[C@@H](CC(=O)O)C(=O)N[C@@H](CCC(=O)O)C(=O)N[C@@H](CC(=O)O)C(=O)N3)NC(=O)CNC(=O)[C@H](CC(C)C)NC(=O)[C@H](Cc1c[nH]cn1)NC(=O)[C@H](CCCCN)NC2=O [[K24D]Pnc1a] (H-DCRYMFGDCEKDEDCCKHLGCKRDMKYCAWDFTFT-OH; disulfide 2-16, 9-21, 15-28)
IC50 (hNav1.2): 38 µM | Selectivity for Nav1.7, Nav subtype 1.2 (hNav1.2; membrane potential assay): 7 | IC50 (hNav1.6): > 30 µM | Selectivity for Nav1.7, Nav subtype 1.6 (hNav1.6; membrane potential assay): 14 | effect on the current voltage (IV) relationship of Nav1.7 (hNav1.7 [1]): minimal effect | IC50 (hNav1.1): 32 µM | Selectivity for Nav1.7, Nav subtype 1.1 (hNav1.1; membrane potential assay): 63 | IC50 (hNav1.5): > 30 µM | Selectivity for Nav1.7, Nav subtype 1.5 (hNav1.5; membrane potential assay): 59 | IC50 (hNav1.4): 12 µM | Selectivity for Nav1.7, Nav subtype 1.4 (hNav1.4; membrane potential assay): 24 | IC50 (hNav1.8): > 30 µM | Selectivity for Nav1.7, Nav subtype 1.8 (hNav1.8; membrane potential assay): 40 | IC50 (hNav1.3): 20 µM | Selectivity for Nav1.7, Nav subtype 1.3 (hNav1.3; membrane potential assay): 39 | IC50 (hNav1.7 [2]): 0.51 µM | Selectivity for Nav1.7, Nav subtype 1.7 (hNav1.7 [2]; membrane potential assay, reference subtype): 1

ProTxII: Nav1.7 selective inhibitor (Peptides International) [reference compound]
OD1-induced pain behaviours, compared to an equivalent concentration of Pnc1a [3]: only partially reversed

C=CC[N+]1(C)CC[C@]23c4c5ccc(O)c4O[C@H]2C(=O)CC[C@@]3(O)[C@H]1C5 (stereo partly shown) [naloxone methiodide]
analgesic effects of the Pnc1a/oxycodone combination on mechanical allodynia [4]: reversed | analgesic effects of the Pnc1a/oxycodone combination on thermal allodynia [4]: reversed

NC(=O)[C@@H]1CC[C@H](c2ccc(OCc3ccccc3F)cc2)N1 [CNV1014802, raxatrigine]
ataxia index (foot slips per metre travelled) compared to vehicle control [5]: no significant effect

NCC1(CC(=O)O)CCCCC1 [gabapentin]
ataxia index (foot slips per metre travelled) compared to vehicle control [5]: significant increase
